Activity calls are given as the source filed them. The calls are words filed in the database; no cut-off is given here.
Experiments:
[1] = In vivo inhibition of NEH3 in Sprague-Dawley rat assessed as fecal water content at 3 mg/kg, po administered via gavage measured after 6 hrs; format: functional; set-up: scale not given: the % may be the effect or the level left
[2] = Cmax in Sprague-Dawley rat at 11 mg/kg, po administered via gavage by LC-MS/MS analysis; format: ADME, organism-based; set-up: dose 11 mg/kg, route po; conditions: in vivo
[3] = In vivo inhibition of NEH3 in Sprague-Dawley rat assessed as fecal form score at 3 mg/kg, po administered via gavage measured after 6 hrs; format: functional
[4] = target: T1, Sodium/hydrogen exchanger 3 (Homo sapiens, UniProt P48764); test: Inhibition of human NHE3 expressed in opossum kidney cells assessed as reduction in Na-HEPES buffer-mediated pH recovery in presence of NEH1 inhibitor ethyl isopropyl amiloride by BCECF-AM dye based fluorescence assay; format: cell-based, Kidney epithelial cell
T1 sequence (P48764 whole entry): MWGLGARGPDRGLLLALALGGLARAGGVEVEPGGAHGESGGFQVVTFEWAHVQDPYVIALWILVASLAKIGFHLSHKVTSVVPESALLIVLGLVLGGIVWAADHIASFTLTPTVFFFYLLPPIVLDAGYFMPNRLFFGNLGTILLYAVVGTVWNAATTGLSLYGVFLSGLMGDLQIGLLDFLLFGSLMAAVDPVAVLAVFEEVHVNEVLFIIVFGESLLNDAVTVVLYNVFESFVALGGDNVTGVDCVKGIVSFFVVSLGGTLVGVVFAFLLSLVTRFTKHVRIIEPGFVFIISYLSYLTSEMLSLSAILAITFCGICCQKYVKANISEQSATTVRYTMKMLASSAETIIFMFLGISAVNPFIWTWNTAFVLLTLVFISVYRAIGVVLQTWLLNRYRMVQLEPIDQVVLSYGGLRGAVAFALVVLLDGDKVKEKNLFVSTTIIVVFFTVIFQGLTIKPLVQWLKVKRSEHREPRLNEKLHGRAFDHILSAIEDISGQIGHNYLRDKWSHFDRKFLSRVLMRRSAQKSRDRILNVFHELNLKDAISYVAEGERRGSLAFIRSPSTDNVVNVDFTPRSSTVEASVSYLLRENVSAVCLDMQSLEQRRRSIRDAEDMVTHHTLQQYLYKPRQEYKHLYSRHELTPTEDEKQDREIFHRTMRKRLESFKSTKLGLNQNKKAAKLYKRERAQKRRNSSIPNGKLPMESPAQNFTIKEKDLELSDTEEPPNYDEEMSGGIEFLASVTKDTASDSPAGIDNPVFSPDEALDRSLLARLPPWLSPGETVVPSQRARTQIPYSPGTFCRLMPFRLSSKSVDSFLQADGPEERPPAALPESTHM

[5] = AUC in Sprague-Dawley rat at 11 mg/kg, po administered via gavage by LC-MS/MS analysis; conditions: in vivo
[6] = In vivo inhibition of NEH3 in Sprague-Dawley rat assessed as sodium excretion in urine at 3 mg/kg, po administered via gavage measured after 16 hrs by ion chromatography relative to control; set-up: scale not given: the % may be the effect or the level left
[7] = target: hERG (KCNH2) (Homo sapiens, UniProt Q12809); test: Inhibition of human ERG at 10 uM relative to control; format: toxicity
[8] = Drug metabolism in Sprague-Dawley rat at 30 mg/kg, po administered via gavage by LC-MS/MS analysis; format: ADME, organism-based; conditions: in vivo
[9] = Drug metabolism in Sprague-Dawley rat feces at 0.1 mg/kg, po administered via gavage measured after 72 hrs by LC-MS/MS analysis; format: ADME, organism-based; conditions: in vivo
[10] = Cmax in Sprague-Dawley rat at 30 mg/kg, po administered via gavage by LC-MS/MS analysis; format: ADME, organism-based; set-up: dose 30 mg/kg, route po; conditions: in vivo
[11] = tested on: Rattus norvegicus; test: In vivo inhibition of NEH3 in Sprague-Dawley rat assessed as reduction in sodium excretion in urine at 0.1 to 3 mg/kg, po administered via gavage measured after 16 hrs by ion chromatography; format: functional, organism-based; conditions: dose 0.1-3 mg/kg
[12] = Drug recovery in Sprague-Dawley rat feces at 0.1 mg/kg, po administered via gavage measured after 72 hrs by LC-MS/MS analysis; format: ADME, organism-based; conditions: faeces, read-out: Drug recovery
[13] = In vivo inhibition of NEH3 in Sprague-Dawley rat assessed as increase in fecal water content at 0.1 to 3 mg/kg, po administered via gavage measured after 6 hrs; format: functional; set-up: scale not given: the % may be the effect or the level left; conditions: dose 0.1-3 mg/kg
[14] = target: Sodium/hydrogen exchanger 3 (Rattus norvegicus, UniProt P26433); test: Inhibition of rat NHE3 expressed in opossum kidney cells assessed as reduction in Na-HEPES buffer-mediated pH recovery in presence of NEH1 inhibitor ethyl isopropyl amiloride by BCECF-AM dye based fluorescence assay; format: cell-based, Kidney epithelial cell
[15] = Cmax in Sprague-Dawley rat at 1.5 mg/kg, po administered via gavage by LC-MS/MS analysis; format: ADME, organism-based; set-up: dose 1.5 mg/kg, route po; conditions: in vivo
[16] = tested on: Rattus norvegicus; test: In vivo inhibition of NEH3 in Sprague-Dawley rat assessed as increase in cecum water content at 10 mg/kg, po administered via gavage measured after 6 hrs; format: functional, organism-based
[17] = AUC in Sprague-Dawley rat at 1.5 mg/kg, po administered via gavage by LC-MS/MS analysis; conditions: in vivo
[18] = tested on: Rattus norvegicus; test: In vivo inhibition of NEH3 in Sprague-Dawley rat assessed as increase in colon water content at 10 mg/kg, po administered via gavage measured after 6 hrs; format: functional, organism-based
[19] = Drug metabolism in Sprague-Dawley rat feces at 3 mg/kg, po administered via gavage measured after 64 hrs by LC-MS/MS analysis; format: ADME, organism-based; conditions: in vivo
[20] = Drug recovery in Sprague-Dawley rat feces at 3 mg/kg, po administered via gavage measured after 64 hrs by LC-MS/MS analysis; format: ADME, organism-based; conditions: faeces, read-out: Drug recovery
[21] = Oral bioavailability in Sprague-Dawley rat at 11 mg/kg administered via gavage by LC-MS/MS analysis; format: ADME, organism-based; conditions: in vivo
[22] = Apparent permeability in MDCK cells at 10 uM measured after 60 mins by LC-MS/MS analysis; format: ADME, cell-based, Canis lupus familiaris; conditions: dog, 1 h

Chain of hERG (KCNH2) (Q12809 whole entry): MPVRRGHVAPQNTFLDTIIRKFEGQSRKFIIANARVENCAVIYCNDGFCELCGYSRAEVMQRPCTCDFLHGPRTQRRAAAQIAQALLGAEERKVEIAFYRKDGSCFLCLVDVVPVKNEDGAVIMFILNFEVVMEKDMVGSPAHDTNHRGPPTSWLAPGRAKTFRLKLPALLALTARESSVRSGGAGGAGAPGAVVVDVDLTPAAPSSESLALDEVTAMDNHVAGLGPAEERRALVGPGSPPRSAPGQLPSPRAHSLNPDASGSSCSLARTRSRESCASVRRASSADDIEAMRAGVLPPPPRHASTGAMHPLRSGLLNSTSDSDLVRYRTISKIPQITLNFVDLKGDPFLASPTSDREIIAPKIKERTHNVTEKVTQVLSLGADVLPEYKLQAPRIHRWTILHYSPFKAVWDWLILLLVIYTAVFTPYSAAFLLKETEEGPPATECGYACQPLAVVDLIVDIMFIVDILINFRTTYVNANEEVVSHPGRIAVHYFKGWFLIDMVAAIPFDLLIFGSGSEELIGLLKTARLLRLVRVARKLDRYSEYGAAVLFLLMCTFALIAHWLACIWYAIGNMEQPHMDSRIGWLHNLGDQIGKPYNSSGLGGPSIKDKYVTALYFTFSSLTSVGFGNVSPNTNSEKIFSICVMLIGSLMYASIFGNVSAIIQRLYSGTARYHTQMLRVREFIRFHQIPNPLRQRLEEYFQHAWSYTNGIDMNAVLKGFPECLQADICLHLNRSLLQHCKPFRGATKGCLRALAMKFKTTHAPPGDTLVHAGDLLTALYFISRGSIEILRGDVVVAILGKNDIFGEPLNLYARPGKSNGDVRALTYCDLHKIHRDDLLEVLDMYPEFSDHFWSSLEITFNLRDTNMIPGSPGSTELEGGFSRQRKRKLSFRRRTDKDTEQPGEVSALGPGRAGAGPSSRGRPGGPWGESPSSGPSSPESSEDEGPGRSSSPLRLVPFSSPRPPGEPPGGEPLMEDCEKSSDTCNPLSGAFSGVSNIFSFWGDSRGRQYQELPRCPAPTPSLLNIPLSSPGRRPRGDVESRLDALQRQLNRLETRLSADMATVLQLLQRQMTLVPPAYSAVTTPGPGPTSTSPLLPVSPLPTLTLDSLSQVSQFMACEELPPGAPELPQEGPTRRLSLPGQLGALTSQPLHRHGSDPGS
Chain of Sodium/hydrogen exchanger 3 (Rattus norvegicus, UniProt P26433) (P26433 whole entry): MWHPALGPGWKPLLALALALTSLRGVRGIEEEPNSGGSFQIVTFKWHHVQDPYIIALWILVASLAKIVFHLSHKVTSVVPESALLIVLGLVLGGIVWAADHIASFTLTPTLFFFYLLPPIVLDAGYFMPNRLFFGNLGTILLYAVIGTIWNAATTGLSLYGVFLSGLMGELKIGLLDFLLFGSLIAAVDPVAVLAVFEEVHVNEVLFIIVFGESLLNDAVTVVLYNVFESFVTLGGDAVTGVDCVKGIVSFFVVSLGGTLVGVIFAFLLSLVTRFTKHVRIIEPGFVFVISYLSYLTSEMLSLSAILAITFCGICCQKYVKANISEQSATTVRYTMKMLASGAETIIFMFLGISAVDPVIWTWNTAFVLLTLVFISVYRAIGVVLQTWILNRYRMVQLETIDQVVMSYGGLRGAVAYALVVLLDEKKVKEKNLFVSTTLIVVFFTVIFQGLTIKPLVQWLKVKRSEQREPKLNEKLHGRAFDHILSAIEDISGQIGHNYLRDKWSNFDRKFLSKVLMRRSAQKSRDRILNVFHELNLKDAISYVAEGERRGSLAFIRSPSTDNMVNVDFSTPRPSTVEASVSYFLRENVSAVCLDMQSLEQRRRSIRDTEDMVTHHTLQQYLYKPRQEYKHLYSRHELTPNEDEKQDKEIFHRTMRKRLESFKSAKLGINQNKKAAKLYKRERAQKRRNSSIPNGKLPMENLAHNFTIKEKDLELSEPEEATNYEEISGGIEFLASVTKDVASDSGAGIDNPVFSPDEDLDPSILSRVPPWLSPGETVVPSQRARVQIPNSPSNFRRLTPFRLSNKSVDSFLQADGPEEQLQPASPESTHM

Compound	Activity [1] [%]	Activity [3]	IC50 [4] [nM]	Activity [6] [%]	IC50 [14] [nM]	further results
CN1Cc2c(Cl)cc(Cl)cc2C(c2cccc(S(=O)(=O)NCCOCCOCCNC(=O)NCCOCCOCCNS(=O)(=O)c3cccc(C4CN(C)Cc5c(Cl)cc(Cl)cc54)c3)c2)C1 (stereo not given)	50	1	2000	100	–	Cmax [2]: < 5 ng/mL; AUC [5]: < 19 ng·h/mL
CN1Cc2c(Cl)cc(Cl)cc2[C@H](c2cccc(S(=O)(=O)NCCOCCOCCNC(=O)Nc3ccc(NC(=O)NCCOCCOCCNS(=O)(=O)c4cccc([C@@H]5CN(C)Cc6c(Cl)cc(Cl)cc65)c4)cc3)c2)C1	–	–	1.58	–	–	inhibition at 10 µM [7]: < 50%; Drug metabolism [8]: Metabolite_Notdetected; Drug metabolism [9]: Metabolite_Notdetected; Cmax [10]: < 2 ng/mL; inhibition [11]: Active; dose excreted at 72 h [12]: 93%; Activity [13]: 10%
CN1Cc2c(Cl)cc(Cl)cc2[C@H](c2cccc(NC(=O)[C@H](O)[C@@H](O)[C@H](O)[C@H](O)CO)c2)C1	–	–	25.1	–	39.8	Cmax [15]: 6 ng/mL; inhibition [16]: Active; AUC [17]: 12 ng·h/mL; inhibition [18]: Active
CN1Cc2c(Cl)cc(Cl)cc2[C@H](c2cccc(S(=O)(=O)NCCOCCOCCNC(=O)CCC(=O)NCCOCCOCCNS(=O)(=O)c3cccc([C@@H]4CN(C)Cc5c(Cl)cc(Cl)cc54)c3)c2)C1	–	–	–	–	–	inhibition at 10 µM [7]: < 50%; Drug metabolism [8]: Metabolite_Notdetected; Drug metabolism [9]: Metabolite_Notdetected; Cmax ([10]; Sprague-Dawley, read-out: Cmax): < 2 ng/mL; inhibition [11]: Active; dose excreted at 72 h [12]: 46%; Activity [13]: 10%
CN1Cc2c(Cl)cc(Cl)cc2[C@H](c2cccc(S(=O)(=O)NCCOCCOCCOCCNC(=O)NCCOCCOCCOCCNS(=O)(=O)c3cccc([C@@H]4CN(C)Cc5c(Cl)cc(Cl)cc54)c3)c2)C1	–	–	–	–	–	inhibition at 10 µM [7]: < 50%; Drug metabolism [8]: Metabolite_Notdetected; Drug metabolism [19]: Metabolite_Detected; Cmax ([10]; Sprague-Dawley, read-out: Cmax): < 5 ng/mL; dose excreted at 64 h [20]: 82%; inhibition [11]: Active; Activity [13]: 10%
CN1Cc2c(Cl)cc(Cl)cc2[C@@H](c2cccc(NC(=O)[C@H](O)[C@@H](O)[C@H](O)[C@H](O)CO)c2)C1	–	–	2510	–	7940	–
CN1Cc2c(Cl)cc(Cl)cc2[C@H](c2cccc(S(=O)(=O)NCCOCCOCCOCCNC(=O)NCCCNC(=O)NCCOCCOCCOCCNS(=O)(=O)c3cccc([C@@H]4CN(C)Cc5c(Cl)cc(Cl)cc54)c3)c2)C1	–	–	–	–	–	inhibition at 10 µM [7]: < 50%; Drug metabolism [8]: Metabolite_Notdetected; Drug metabolism [19]: Metabolite_Notdetected; Cmax ([10]; Sprague-Dawley, read-out: Cmax): < 15 ng/mL; dose excreted at 64 h [20]: 96%
CN1Cc2c(Cl)cc(Cl)cc2C(c2cccc(NC(=O)[C@H](O)[C@@H](O)[C@H](O)[C@H](O)CO)c2)C1 (mixture of isomers)	–	–	50.1	–	39.8	–
CN1Cc2c(Cl)cc(Cl)cc2C(c2cccc(S(N)(=O)=O)c2)C1 (racemic)	–	–	631	–	–	F [21]: 98%; Cmax [2]: 159 ng/mL; AUC [5]: 522 ng·h/mL; Papp [22]: >= 10 10^-6 cm/s
CN1Cc2c(Cl)cc(Cl)cc2C(c2cccc(S(=O)(=O)NCCOCCOCCNC(=O)NCCCCNC(=O)NCCOCCOCCNS(=O)(=O)c3cccc(C4CN(C)Cc5c(Cl)cc(Cl)cc54)c3)c2)C1 (racemic)	64	4.5	–	22	3.16	–
CN1Cc2c(Cl)cc(Cl)cc2C(c2cccc(S(=O)(=O)NCCOCCOCCNC(=O)Nc3ccc(NC(=O)NCCOCCOCCNS(=O)(=O)c4cccc(C5CN(C)Cc6c(Cl)cc(Cl)cc65)c4)cc3)c2)C1 (racemic)	60	3	–	32	7.94	–
CN1Cc2c(Cl)cc(Cl)cc2C(c2ccc(S(=O)(=O)NCCOCCOCCNC(=O)Nc3ccc(NC(=O)NCCOCCOCCNS(=O)(=O)c4ccc(C5CN(C)Cc6c(Cl)cc(Cl)cc65)cc4)cc3)cc2)C1 (racemic)	58	3	–	29	–	–
CN1Cc2c(Cl)cc(Cl)cc2C(c2ccc(S(=O)(=O)NCCOCCOCCNC(=O)COCC(=O)NCCOCCOCCNS(=O)(=O)c3ccc(C4CN(C)Cc5c(Cl)cc(Cl)cc54)cc3)cc2)C1 (racemic)	59	2.5	–	29	–	–
CN1Cc2c(Cl)cc(Cl)cc2C(c2cccc(S(=O)(=O)NCCCS(=O)(=O)O)c2)C1 (racemic)	–	–	1580	–	50.1	–
CN1Cc2c(Cl)cc(Cl)cc2C(c2ccc(S(=O)(=O)NCCOCCOCCNC(=O)CCC(=O)NCCOCCOCCNS(=O)(=O)c3ccc(C4CN(C)Cc5c(Cl)cc(Cl)cc54)cc3)cc2)C1 (racemic)	60	3.5	–	23	–	–
CN1Cc2c(Cl)cc(Cl)cc2C(c2cccc(S(=O)(=O)NCCOCCOCCOCCNC(=O)NCCCCNC(=O)NCCOCCOCCOCCNS(=O)(=O)c3cccc(C4CN(C)Cc5c(Cl)cc(Cl)cc54)c3)c2)C1 (racemic)	57	3	–	50	–	–
CN(CC(=O)NCCOCCOCCNS(=O)(=O)c1ccc(C2CN(C)Cc3c(Cl)cc(Cl)cc32)cc1)CC(=O)NCCOCCOCCNS(=O)(=O)c1ccc(C2CN(C)Cc3c(Cl)cc(Cl)cc32)cc1 (racemic)	57	3	–	45	–	–
CN1Cc2c(Cl)cc(Cl)cc2C(c2cccc(S(=O)(=O)NCCOCCOCCNS(=O)(=O)c3cccc(C4CN(C)Cc5c(Cl)cc(Cl)cc54)c3)c2)C1 (racemic)	–	–	5010	–	–	–
CN1Cc2c(Cl)cc(Cl)cc2C(c2cccc(S(=O)(=O)NCC(=O)O)c2)C1 (racemic)	–	–	100	–	100	–
CN1Cc2c(Cl)cc(Cl)cc2C(c2ccc(S(=O)(=O)NCCOCCOCCNC(=O)NCCCCNC(=O)NCCOCCOCCNS(=O)(=O)c3ccc(C4CN(C)Cc5c(Cl)cc(Cl)cc54)cc3)cc2)C1 (racemic)	60	3	–	14	–	–
CN1Cc2c(Cl)cc(Cl)cc2C(c2cccc(S(=O)(=O)NCCOCCOCCOCCNC(=O)Nc3ccc(NC(=O)NCCOCCOCCOCCNS(=O)(=O)c4cccc(C5CN(C)Cc6c(Cl)cc(Cl)cc65)c4)cc3)c2)C1 (racemic)	54	2	–	42	6310	–
CN1Cc2c(Cl)cc(Cl)cc2C(c2cccc(S(=O)(=O)NCCCP(=O)(O)O)c2)C1 (racemic)	–	–	5010	–	63.1	–
